Reference: patent US20100179093A1, “Neoropeptide-2-Receptor (Y-2R) Agonists” (priority 2008, published 2010)

Tests used:
hypothalamic slices = hypothalamic slices in vitro; cited from earlier work
Y1R = target: T1, Y1R (Homo sapiens, UniProt P25929); test: CaFlux Assay (FLIPR), Y1R; type: cell-based
T1 sequence (P25929 1-384): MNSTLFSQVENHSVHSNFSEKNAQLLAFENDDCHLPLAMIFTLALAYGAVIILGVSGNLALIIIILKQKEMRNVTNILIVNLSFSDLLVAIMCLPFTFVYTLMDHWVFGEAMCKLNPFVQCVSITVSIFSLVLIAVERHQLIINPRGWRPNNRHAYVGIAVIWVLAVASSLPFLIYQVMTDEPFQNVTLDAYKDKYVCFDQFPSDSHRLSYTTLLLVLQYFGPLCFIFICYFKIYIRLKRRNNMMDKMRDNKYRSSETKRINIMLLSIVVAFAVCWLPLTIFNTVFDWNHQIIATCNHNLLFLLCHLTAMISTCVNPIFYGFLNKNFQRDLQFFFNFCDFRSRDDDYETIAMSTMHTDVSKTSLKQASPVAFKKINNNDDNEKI

Y4R = Y4R (Homo sapiens, UniProt P50391); test: CaFlux Assay (FLIPR), Y4R; type: cell-based
Y5R = target: T2, Y5R (Homo sapiens, UniProt Q15761); test: CaFlux Assay (FLIPR), Y5R; type: cell-based; settings: for Emax: read-out: Y5R FLIPR, percentage in parentheses under the EC50;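 for Emax: percent of the maximal response of the positive control agonist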
T2 sequence (Q15761 1-445): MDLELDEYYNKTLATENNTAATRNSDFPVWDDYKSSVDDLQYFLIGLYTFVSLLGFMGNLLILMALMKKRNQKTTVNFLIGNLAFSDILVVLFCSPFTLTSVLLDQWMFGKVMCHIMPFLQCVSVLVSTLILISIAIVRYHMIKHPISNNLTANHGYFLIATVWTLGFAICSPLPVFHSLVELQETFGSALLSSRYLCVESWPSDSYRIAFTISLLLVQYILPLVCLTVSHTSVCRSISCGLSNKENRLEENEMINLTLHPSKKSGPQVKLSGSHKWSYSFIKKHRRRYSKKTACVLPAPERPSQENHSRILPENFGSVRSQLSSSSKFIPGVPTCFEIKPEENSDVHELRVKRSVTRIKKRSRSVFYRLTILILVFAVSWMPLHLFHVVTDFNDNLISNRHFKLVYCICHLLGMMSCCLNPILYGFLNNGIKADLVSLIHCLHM

hNPY2R [1] = target: T3, hNPY2R (Homo sapiens, UniProt P49146); test: cAMP Agonist Assay, HEK293/hNPY2R cells; type: cell-based; design: expressed in transfected cells; host or cells: HEK293/hNPY2R (G418 selection)
T3 sequence (P49146 1-381): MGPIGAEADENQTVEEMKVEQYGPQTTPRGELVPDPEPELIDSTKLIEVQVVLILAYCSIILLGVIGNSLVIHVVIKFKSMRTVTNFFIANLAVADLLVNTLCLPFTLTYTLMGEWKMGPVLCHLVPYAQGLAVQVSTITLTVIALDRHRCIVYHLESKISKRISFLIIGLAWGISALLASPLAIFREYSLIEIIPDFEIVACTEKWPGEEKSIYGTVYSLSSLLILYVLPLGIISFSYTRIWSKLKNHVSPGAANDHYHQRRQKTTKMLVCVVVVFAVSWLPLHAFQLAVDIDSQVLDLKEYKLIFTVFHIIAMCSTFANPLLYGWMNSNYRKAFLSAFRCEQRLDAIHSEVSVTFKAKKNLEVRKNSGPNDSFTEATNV
Protocol: On the first day, medium was discarded, and the monolayer cells were washed with 10 mL PBS per flask (T225). […] The flask was gently tapped and the cell suspension was pooled. Each flask was rinsed with 10 mL plating medium and centrifuged at 1000 rpm for 5 min. The suspension was pooled and counted. The suspension was resuspended in plating medium at a density of 2.0×10^5 cells/mL for HEK293/hNPY2R. 50 microliters of cells (HEK293/hNPY2R-10,000 cells/well) were transferred into the 384-well plate using Multi-drop dispenser. The plates were incubated at 37° C. overnight. […] The media and reagents were allowed to come to room temperature. Before the dilutions were prepared, the stock solution of stimulating compound in dimethyl sulphoxide (DMSO, Sigma, cat #D2650) was allowed to warm up to 32 C for 5-10 min. […] The cell medium was tapped off with a gentle inversion of the cell plate on a paper towel. 50 μL of stimulation medium was placed per well (each concentration done in four replicates). The plates were incubated at room temperature for 30 min, and the cells were checked under a microscope for toxicity. After 30 minutes of treatment, the stimulation media was discarded and 50 mL/well of Assay Lysis Buffer (provided in the Tropix kit) was added. The plates were incubated for 45 min@37° C. 20 μL of the lysate was transferred from stimulation plates into the pre-coated antibody plates (384-well) from the Tropix kit. 10 μL of AP conjugate and 20 μL of anti-cAMP antibody was added. The plates were incubated at room temperature while shaking for 1 hour. The plates were then washed 5 times with Wash Buffer, 70 μL per well for each wash. The plates were tapped to dry. 30 μL/well of CSPD/Saphire-II RTU substrate/enhancer solution was added and incubated for 45 min @ RT (shake). Signal for 1 sec/well in a Luminometer.

hNPY2R [2] = target: T3, hNPY2R; test: CaFlux Assay (FLIPR), Y2R; type: cell-based; design: expressed in transfected cells; host or cells: HEK-293 stably expressing G protein chimera Gaqi9
Protocol: Hek-293 cells were stably transfected with the G protein chimera Gaqi9 and the hygromycin-B resistance gene were further transfected with the human NPY2 receptor and G418 antibiotic selection. Following selection in both hygromycin-B and G418, individual clones were assayed for their response to PYY. The transfected cells were cultured in DMEM medium supplemented with 10% fetal bovine serum, 50 μg/mL hygromycin-B 2 mM glutamine, 100 U/mL penicillin, 100 μg/mL streptomycin and 250 μg/mL G418. Cells are harvested with trypsin-EDTA and counted using ViaCount reagent. The cell suspension volume is adjusted to 4.8×10^5 cells/mL with complete growth media. Aliquots of 25 μL are dispensed into 384 well Poly-D Lysine coated black/clear microplates (Falcon) and the microplates were placed in a 37° C. CO2 incubator overnight. Loading Buffer (Calcium-3 Assay Kit, Molecular Devices) was prepared by dissolving the contents of one vial (Express Kit) into 1000 mL Hank's Balanced Salt Solution containing 20 mM HEPES and 5 mM probenecid. Aliquots of 25 μL of diluted dye were dispensed into the cell plates and the plates are then incubated for 1 hour at 37° C. During the incubation, test compounds were prepared at 3.5× the desired concentration in HBSS (20 mM HEPES)/0.05% BSA/1% DMSO and transferred to a 384 well plate for use on FLIPR. After incubation, both the cell and compound plates were brought to the FLIPR and 20 μL of the diluted compounds were transferred to the cell plates by the FLIPR. During the assay, fluorescence readings were taken simultaneously from all 384 wells of the cell plate every 1.5 seconds. Five readings were taken to establish a stable baseline, and then 20 μL of sample was rapidly (30 μL/sec) and simultaneously added to each well of the cell plate. The fluorescence was continuously monitored before, during and after sample addition for a total elapsed time of 100 seconds. Responses (increase in peak fluorescence) in each well following addition were determined. The initial fluorescence reading from each well, prior to ligand stimulation, was used as a zero baseline value for the data from that well. The responses are expressed as % of maximal response of the positive control.

Sequence of Y4R (P50391 whole entry): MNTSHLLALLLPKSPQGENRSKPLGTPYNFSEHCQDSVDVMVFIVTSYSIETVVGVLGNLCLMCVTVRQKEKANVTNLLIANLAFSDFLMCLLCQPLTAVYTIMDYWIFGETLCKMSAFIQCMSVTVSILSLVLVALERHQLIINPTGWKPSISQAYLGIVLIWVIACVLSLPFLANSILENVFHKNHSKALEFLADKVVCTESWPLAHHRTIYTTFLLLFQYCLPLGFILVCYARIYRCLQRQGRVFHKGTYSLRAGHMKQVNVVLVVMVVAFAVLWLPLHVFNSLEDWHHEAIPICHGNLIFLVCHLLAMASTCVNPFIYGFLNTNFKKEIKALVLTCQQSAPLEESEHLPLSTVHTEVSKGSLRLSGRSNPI

Row | Structure (SMILES) | NPY release (hypothalamic slices) | EC50 (Y1R) [nM] | EC50 (Y4R) [nM] | EC50 (Y5R) [nM] | Emax (Y5R) [%] | EC50 (hNPY2R [1]) [nM] | EC50 (hNPY2R [2]) [nM]
1 | N=C(N)NCCC[C@H](NC(=O)CC1(CC(=O)N2CCN(C3c4ccccc4NC(=O)c4ccccc43)CC2)CCCC1)C(=O)NCCn1c(=O)n(-c2ccccc2)n(-c2ccccc2)c1=O (stereo partly shown) [BIIE0246] | increases NPY release |  |  |  |  |  | 
2 | CCCCCCCCCCCCCCCC(=O)NCCOCCOCCNC(=O)CCC(=O)NCCCC[C@H](NC(=O)[C@@H](N)[C@@H](C)CC)C(=O)N1CCN(c2ccc3ncn(CC(=O)N[C@@H](CCCNC(=N)N)C(=O)N[C@@H](Cc4c[nH]cn4)C(=O)N[C@@H](Cc4ccc(O)cc4)C(=O)N[C@@H](CC(C)C)C(=O)N[C@@H](CC(N)=O)C(=O)N[C@@H](Cc4c[nH]c5ccccc45)C(=O)N[C@H](C(=O)N[C@H](C(=O)N[C@@H](CCCNC(=N)N)C(=O)N[C@@H](CCC(N)=O)C(=O)N(C)[C@@H](CCCNC(=N)N)C(=O)N[C@@H](Cc4ccc(O)cc4)C(N)=O)[C@@H](C)O)C(C)C)c(=O)c3c2)CC1 [Example 36] |  | > 5000 | > 5000 | 481 | 73 | 0.15 | 0.138
3 | CCCCCCCCCCCCCCCCCCCC(=O)NCCOCCOCCNC(=O)CCC(=O)NCCCC[C@H](NC(=O)[C@@H](N)[C@@H](C)CC)C(=O)N1CCN(c2ccc3ncn(CC(=O)N[C@@H](CCCNC(=N)N)C(=O)N[C@@H](Cc4c[nH]cn4)C(=O)N[C@@H](Cc4ccc(O)cc4)C(=O)N[C@@H](CC(C)C)C(=O)N[C@@H](CC(N)=O)C(=O)N[C@@H](Cc4c[nH]c5ccccc45)C(=O)N[C@H](C(=O)N[C@H](C(=O)N[C@@H](CCCNC(=N)N)C(=O)N[C@@H](CCC(N)=O)C(=O)N(C)[C@@H](CCCNC(=N)N)C(=O)N[C@@H](Cc4ccc(O)cc4)C(N)=O)[C@@H](C)O)C(C)C)c(=O)c3c2)CC1 [Example 37] |  | > 5000 | > 5000 | 77.9 | 48 | 0.13 | 0.367
4 | CCCCCCCCCCCCCCCC(=O)NCCOCCNC(=O)CCC(=O)NCCCC[C@H](NC(=O)[C@@H](N)[C@@H](C)CC)C(=O)N1CCN(c2ccc3ncn(CC(=O)N[C@@H](CCCNC(=N)N)C(=O)N[C@@H](Cc4c[nH]cn4)C(=O)N[C@@H](Cc4ccc(O)cc4)C(=O)N[C@@H](CC(C)C)C(=O)N[C@@H](CC(N)=O)C(=O)N[C@@H](Cc4c[nH]c5ccccc45)C(=O)N[C@H](C(=O)N[C@H](C(=O)N[C@@H](CCCNC(=N)N)C(=O)N[C@@H](CCC(N)=O)C(=O)N(C)[C@@H](CCCNC(=N)N)C(=O)N[C@@H](Cc4ccc(O)cc4)C(N)=O)[C@@H](C)O)C(C)C)c(=O)c3c2)CC1 [Example 38] |  | > 5000 | > 5000 | 644 | 83 | 0.17 | 0.003
5 | CCCCCCCCCCCCCCCCCCCC(=O)NCCOCCNC(=O)CCC(=O)NCCCC[C@H](NC(=O)[C@@H](N)[C@@H](C)CC)C(=O)N1CCN(c2ccc3ncn(CC(=O)N[C@@H](CCCNC(=N)N)C(=O)N[C@@H](Cc4c[nH]cn4)C(=O)N[C@@H](Cc4ccc(O)cc4)C(=O)N[C@@H](CC(C)C)C(=O)N[C@@H](CC(N)=O)C(=O)N[C@@H](Cc4c[nH]c5ccccc45)C(=O)N[C@H](C(=O)N[C@H](C(=O)N[C@@H](CCCNC(=N)N)C(=O)N[C@@H](CCC(N)=O)C(=O)N(C)[C@@H](CCCNC(=N)N)C(=O)N[C@@H](Cc4ccc(O)cc4)C(N)=O)[C@@H](C)O)C(C)C)c(=O)c3c2)CC1 [Example 39] |  | > 5000 | > 5000 | 285 | 50 | 0.21 | 0.073
6 | CCCCCCCCCCCCCCCC(=O)N[C@@H](CO)C(=O)N[C@@H](CO)C(=O)NCCCC[C@H](NC(=O)[C@@H](N)[C@@H](C)CC)C(=O)N1CCN(c2ccc3ncn(CC(=O)N[C@@H](CCCNC(=N)N)C(=O)N[C@@H](Cc4c[nH]cn4)C(=O)N[C@@H](Cc4ccc(O)cc4)C(=O)N[C@@H](CC(C)C)C(=O)N[C@@H](CC(N)=O)C(=O)N[C@@H](Cc4c[nH]c5ccccc45)C(=O)N[C@H](C(=O)N[C@H](C(=O)N[C@@H](CCCNC(=N)N)C(=O)N[C@@H](CCC(N)=O)C(=O)N(C)[C@@H](CCCNC(=N)N)C(=O)N[C@@H](Cc4ccc(O)cc4)C(N)=O)[C@@H](C)O)C(C)C)c(=O)c3c2)CC1 [Example 40] |  | > 5000 | > 5000 | 602 | 85 | 0.18 | 0.36
7 | CCCCCCCCCCCCCCCCCCCC(=O)N[C@@H](CO)C(=O)N[C@@H](CO)C(=O)NCCCC[C@H](NC(=O)[C@@H](N)[C@@H](C)CC)C(=O)N1CCN(c2ccc3ncn(CC(=O)N[C@@H](CCCNC(=N)N)C(=O)N[C@@H](Cc4c[nH]cn4)C(=O)N[C@@H](Cc4ccc(O)cc4)C(=O)N[C@@H](CC(C)C)C(=O)N[C@@H](CC(N)=O)C(=O)N[C@@H](Cc4c[nH]c5ccccc45)C(=O)N[C@H](C(=O)N[C@H](C(=O)N[C@@H](CCCNC(=N)N)C(=O)N[C@@H](CCC(N)=O)C(=O)N(C)[C@@H](CCCNC(=N)N)C(=O)N[C@@H](Cc4ccc(O)cc4)C(N)=O)[C@@H](C)O)C(C)C)c(=O)c3c2)CC1 [Example 41] |  | > 5000 | > 5000 | 1830 | 37 | 0.11 | 0.165
8 | CCCCCCCCCCCCCCCC(=O)N[C@H](C(=O)N[C@H](C(=O)NCCCC[C@H](NC(=O)[C@@H](N)[C@@H](C)CC)C(=O)N1CCN(c2ccc3ncn(CC(=O)N[C@@H](CCCNC(=N)N)C(=O)N[C@@H](Cc4c[nH]cn4)C(=O)N[C@@H](Cc4ccc(O)cc4)C(=O)N[C@@H](CC(C)C)C(=O)N[C@@H](CC(N)=O)C(=O)N[C@@H](Cc4c[nH]c5ccccc45)C(=O)N[C@H](C(=O)N[C@H](C(=O)N[C@@H](CCCNC(=N)N)C(=O)N[C@@H](CCC(N)=O)C(=O)N(C)[C@@H](CCCNC(=N)N)C(=O)N[C@@H](Cc4ccc(O)cc4)C(N)=O)[C@@H](C)O)C(C)C)c(=O)c3c2)CC1)[C@@H](C)O)[C@@H](C)O [Example 42] |  | > 5000 | > 5000 | 193 | 46 | 0.14 | 0.018
9 | CCCCCCCCCCCCCCCCCCCC(=O)N[C@H](C(=O)N[C@H](C(=O)NCCCC[C@H](NC(=O)[C@@H](N)[C@@H](C)CC)C(=O)N1CCN(c2ccc3ncn(CC(=O)N[C@@H](CCCNC(=N)N)C(=O)N[C@@H](Cc4c[nH]cn4)C(=O)N[C@@H](Cc4ccc(O)cc4)C(=O)N[C@@H](CC(C)C)C(=O)N[C@@H](CC(N)=O)C(=O)N[C@@H](Cc4c[nH]c5ccccc45)C(=O)N[C@H](C(=O)N[C@H](C(=O)N[C@@H](CCCNC(=N)N)C(=O)N[C@@H](CCC(N)=O)C(=O)N(C)[C@@H](CCCNC(=N)N)C(=O)N[C@@H](Cc4ccc(O)cc4)C(N)=O)[C@@H](C)O)C(C)C)c(=O)c3c2)CC1)[C@@H](C)O)[C@@H](C)O [Example 43] |  | > 5000 | > 5000 | 243 | 23 | 0.26 | 0.074
